Data published in EP0356128A2, “3-(Aminopropyl)methyl phosphinic acid as a therapeutic agent” (SMITH KLINE & FRENCH LABORATORIES LIMITED, priority 1988, dated 1990).
pIC50: −log10 of the molar value.

Columns and labels:
[1] = biological target: GABAA receptor; assay: [3H]-GABA radioligand binding assay, GABAA binding (in the presence of baclofen); details: inhibition of specific GABAA binding to rat synaptic membranes; [³H]-GABA 10 nM, baclofen 100 µM; read-out: IC₅₀ (nM) GABAA
Protocol: Male rats were killed by decapitation.
The final tissue was resuspended in fresh buffer for assay and transferred in 0.8 ml aliquots to microtubes (0.5 - 1.0 mg protein.tube).

[2] = biological target: GABAB receptor (Rattus norvegicus, UniProt Q9Z0U4); assay: biochemical
Sequence of GABAB receptor (Q9Z0U4 17-960 limits assumed): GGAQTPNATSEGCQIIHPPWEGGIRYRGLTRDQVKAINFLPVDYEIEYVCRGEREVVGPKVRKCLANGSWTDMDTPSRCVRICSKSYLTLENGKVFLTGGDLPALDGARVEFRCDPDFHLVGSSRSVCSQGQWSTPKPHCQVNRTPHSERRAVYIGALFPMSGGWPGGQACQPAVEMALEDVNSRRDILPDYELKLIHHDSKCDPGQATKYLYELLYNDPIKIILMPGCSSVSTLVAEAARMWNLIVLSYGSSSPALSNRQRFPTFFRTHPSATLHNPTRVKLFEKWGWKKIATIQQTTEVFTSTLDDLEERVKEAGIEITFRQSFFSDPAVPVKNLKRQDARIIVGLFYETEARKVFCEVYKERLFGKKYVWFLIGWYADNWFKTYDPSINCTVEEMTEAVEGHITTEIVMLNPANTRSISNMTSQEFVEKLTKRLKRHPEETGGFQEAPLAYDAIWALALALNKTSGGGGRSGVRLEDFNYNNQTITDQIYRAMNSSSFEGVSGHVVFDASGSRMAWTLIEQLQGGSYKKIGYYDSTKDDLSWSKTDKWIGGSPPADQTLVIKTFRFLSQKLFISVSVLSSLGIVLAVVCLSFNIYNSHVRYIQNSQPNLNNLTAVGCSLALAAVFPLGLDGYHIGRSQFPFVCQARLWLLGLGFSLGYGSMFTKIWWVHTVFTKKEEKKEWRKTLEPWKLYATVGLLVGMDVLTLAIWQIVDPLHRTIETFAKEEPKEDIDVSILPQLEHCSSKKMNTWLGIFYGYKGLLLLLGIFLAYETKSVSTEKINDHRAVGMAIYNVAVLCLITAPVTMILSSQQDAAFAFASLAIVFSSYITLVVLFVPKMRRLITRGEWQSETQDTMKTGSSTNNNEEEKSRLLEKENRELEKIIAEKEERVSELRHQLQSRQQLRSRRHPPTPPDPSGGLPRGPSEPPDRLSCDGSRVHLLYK
Sequence of GABAB receptor (O88871 41-940 partner): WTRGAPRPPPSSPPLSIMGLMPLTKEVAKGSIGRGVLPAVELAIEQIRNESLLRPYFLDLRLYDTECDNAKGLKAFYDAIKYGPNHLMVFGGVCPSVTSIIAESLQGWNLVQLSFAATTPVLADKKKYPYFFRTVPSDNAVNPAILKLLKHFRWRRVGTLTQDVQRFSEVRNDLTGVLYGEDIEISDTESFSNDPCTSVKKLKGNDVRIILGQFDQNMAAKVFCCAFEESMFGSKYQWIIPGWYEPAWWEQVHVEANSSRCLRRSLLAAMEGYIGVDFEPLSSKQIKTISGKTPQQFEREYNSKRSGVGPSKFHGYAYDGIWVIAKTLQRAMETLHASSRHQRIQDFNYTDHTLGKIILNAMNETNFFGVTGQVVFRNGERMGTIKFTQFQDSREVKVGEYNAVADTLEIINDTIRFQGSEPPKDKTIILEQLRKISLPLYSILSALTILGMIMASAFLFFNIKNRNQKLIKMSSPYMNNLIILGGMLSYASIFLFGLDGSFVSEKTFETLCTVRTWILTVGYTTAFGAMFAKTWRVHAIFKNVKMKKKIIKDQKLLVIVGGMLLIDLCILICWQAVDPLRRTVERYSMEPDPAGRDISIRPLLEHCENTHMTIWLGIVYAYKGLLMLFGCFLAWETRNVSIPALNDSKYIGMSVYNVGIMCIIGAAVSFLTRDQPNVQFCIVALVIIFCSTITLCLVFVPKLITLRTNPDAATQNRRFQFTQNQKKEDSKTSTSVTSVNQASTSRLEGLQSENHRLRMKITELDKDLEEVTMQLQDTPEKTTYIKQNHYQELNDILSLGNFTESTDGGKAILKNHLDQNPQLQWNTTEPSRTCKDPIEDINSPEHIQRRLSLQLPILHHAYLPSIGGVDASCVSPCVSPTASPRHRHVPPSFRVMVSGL
Protocol: Male rats were killed by decapitation. […] The homogenate was centrifuged at 1000 g to give a crude nuclear pellet (P₁) and a supernatant fraction enriched in myelin, synaptosomes and mitochrondria. The supernatant was collected and recentrifuged for 20 minutes at 20,000 g. The resulting pellet (P₂) was lysed by resuspension in distilled water and the mixture centrifuged for 20 minutes at 8,000 g. The supernatant was used to rinse off the upper layer of the pellet with the aid of a Pasteur pipette. The combined suspension was centrifuged for 20 minutes at 48,000 g. The final crude synaptic membranes were washed twice with distilled water and were either resuspended in buffer for further washing prior to use as fresh tissue or were stored frozen at -20°C. […]
[³H]-GABA (10 nM final concentrations 65 Ci/mmol) was added to each tube with or without varying concentrations of unlabelled test compound (final volume 1.0 ml). […] GABAB binding was determined by using ³H-GABA in the presence of isoguvacine (40 µM), a GABAA receptor ligand. […]
Non-specific binding was subtracted from the total amount of radioactivity bound in the absence of any drug to yield the amount of ligand specifically bound. The amount of radioactivity specifically bound at a given concentration of non-radioactive drug was expressed as a percentage of the total ligand specifically bound.

SMILES	IC50 [1] [nM]	pIC50 [2]
NCCC[PH](=O)O [3-aminopropyl phosphinic acid]	420	9.00
CP(=O)(O)CCCN [Example 1, 3-(aminopropyl)methyl phosphinic acid]	23000	
